Data: patent KR20240014570A, “양전하성 응집-유도 방출 화합물 및 이의 용도” (priority 2020, dated 2022)

Tests used:
[1] = test system: S.aureus (그람양성, ATCC 25923); assay: Photodynamic antibacterial effect, agar plate colonies; assay type: cell-based; settings: 1 μM; white light 25 mW/cm2, 10 min
[2] = test system: Gram-negative bacteria (그람음성균): E.coli, ESBL-EC; assay type: cell-based; settings: 1 μM; white light 25 mW/cm2, 10 min
[3] = test system: all strains (모든 균주); assay: Photodynamic antibacterial effect, all strains; assay type: cell-based; settings: 3 μM, with or without white light
[4] = test system: ESBL E.coli (ESBL-EC, 그람 음성, ATCC BAA-198); settings: same conditions: 3 μM, white light 25 mW/cm2, 10 min
[5] = test system: ESBL E.coli (ESBL-EC, 그람 음성, ATCC BAA-198); assay: microbe, parasite or virus in culture; settings: Escherichia coli, ATCCBAA198, 10 min, read-out: inhibition of ESBL-EC growth

C=Cc1c(C)c2cc3nc(c(CC(=O)O)c4[nH]c(cc5nc(cc1[nH]2)C(C)=C5CC)c(C)c4C(=O)O)C(CCC(=O)O)C3C (stereo not shown) [Ce6]
photodynamic antibacterial activity against Gram-positive bacteria [1]: 광역학적 항균 활성을 보였지만 | photodynamic antibacterial effect against Gram-negative bacteria [2]: 유의한 효과를 확인할 수 없었다

C(=Cc1ccnc2ccccc12)c1ccc(-c2ccc(N(c3ccccc3)c3ccccc3)cc2)s1 [DQVTA]
bacterial colonies [3]: 변하지 않음

CN(C)c1ccc2nc3ccc(=[N+](C)C)cc-3sc2c1 [MB, 메틸렌 블루]
photodynamic antibacterial effect [4]: 유의한 광역학적 항균 효과를 나타내지 않았고 | inhibition at 3 µM [5]: ~50% | photodynamic antibacterial activity against Gram-positive bacteria [1]: 광역학적 항균 활성을 보였지만 | photodynamic antibacterial effect against Gram-negative bacteria [2]: 유의한 효과를 확인할 수 없었다
